Results on 1 substance are retold here after patent publication US9283277B2, “Methods and compositions for the treatment of obesity” (Children's Medical Center Corporation, priority 2008, dated 2016).

The subject of experiment [1] is LepRB signaling (LepRB, Jak2, Stat3). Briefly: Leptin receptor signaling in LepRB-expressing 293 cells under tunicamycin-induced ER stress. In kind it is cell-based, Human. Conditions: then leptin 100 ng/ml 45 minutes. The text has this: The leptin receptor belongs to the interleukin 6 (IL-6) receptor family of class I cytokine receptors^30. […] Binding of leptin to LepRb initiates a conformational change that leads to trans-autophosphorylation and activation of LepRb-associated Jak2^31,32 Activated Jak2 then phosphorylates the tyrosine residues within the LepRb/Jak2 complex to mediate downstream signaling. […] To examine whether UPR might alter the leptin signaling, LepRB-expressing 293 cells were first exposed to tunicamycin (3 μg/ml) to activate ER stress for a period of 4 hours and then treated with leptin (100 ng/ml) for 45 minutes. […] Finally, as a downstream element, leptin-stimulated Stat3 activation was analyzed.

Experiment [2] relates to insulin receptor (IR). Kind of experiment: Insulin receptor activation in LepRB-expressing 293 cells after tunicamycin. In kind it is cell-based, Human. Conditions: tunicamycin 3 μg/ml five hours, insulin 100 nM five minutes. How it is done: To exclude the possibility that LepRB-expressing 293 cells become dysfunctional due to a possible toxicity generated by tunicamycin, we investigated the insulin receptor (IR) activation by stimulating the cells with insulin (100 nM) for five minutes after five-hour tunicamycin (3 μg/ml) treatment.

Experiment [3] deals with LepRB. Briefly: LepRB membrane translocation (immunofluorescence) and leptin-binding assay in 293 cells. Format: cell-based, Human. Here is the method:
Considering the fact that LepRB is folded in the ER, we investigated whether ER stress blocks leptin receptor translocation to the membrane from the ER and whether this could be a reason for the blockade of leptin signaling. We stimulated the 293 cells with tunicamycin for five hours (3 μg/ml) and analyzed leptin receptor levels in the plasma membrane by immunofluoresence staining. It was observed that LepRB folding is still preserved and its translocation to the membrane is not decreased in ER stress conditions. Next, we performed leptin-binding assays in DMSO and tunicamycin-treated cells to exclude the possibility of a defect in binding of leptin to LepRB.

For experiment [4], the system named is hypothalamus of lean mice. Briefly: Tunicamycin infusion to the third ventricle of lean mice. In kind it is in vivo. From the text:
Having shown that ER stress is increased in the hypothalamus of HFD-fed mice and causes leptin resistance in the cellular systems, we sought to investigate whether leptin action could also be blocked by directly inducing ER stress in brains of lean mice.
Next, we investigated the expression patterns of leptin resistance markers such as neuropeptide Y (NPY) and agouti related peptide (AgRP) in the vehicle- and tunicamycin-infused mice. […] In addition, to exclude the possibility that tunicamycin infusion leads to a decay in mRNA degradation of NPY and AgRP due to a possible toxic effect, we analyzed mRNA levels of IR and insulin receptor substrate 1 (IRS1).
To assess whether increased ER stress and activation of UPR signaling would create leptin resistance and block the leptin-stimulated Stat3 activation in the hypothalamus, leptin (1 mg/kg/day) was intraperitoneally administered 5½ hours after tunicamycin infusion. The experiment was ended by dissection of the hypothalami 30 minutes after leptin administration. […] In contrast, administration of tunicamycin to the third ventricle and creation of ER stress, in complete accordance with our data obtained from 293 cells, blocked activation of Stat3 in the hypothalamus (data not shown).

Experiment [5] concerns LepRB signaling (LepRB, Jak2, Stat3). Kind of experiment: Tunicamycin dose curve and time course in Ad-LacZ, Ad-XBP1s or Ad-ATF6n infected LepRb-expressing 293 cells. In kind it is cell-based, Human. From the text: To determine whether exogenous expression of XBP1s and a consequent increase in ER folding capacity would enhance leptin receptor signaling, we generated an XBP1s-encoding adenovirus (Ad-XBP1s) and also a LacZ-expressing adenovirus (Ad-LacZ) as a control. Infection of mouse embryonic fibroblasts (MEFs) with Ad-XBP1s increased the protein level of XBP1s (data not shown). To test whether the expressed XBP1s was functional, we co-infected cells with Ad-XBP1s and a luciferase reporter gene-driven by an ERSE. […] ERDJ4 is a chaperone and involved in folding of ER proteins. […] After showing that Ad-XBP1s is functional and can increase ER folding capacity, we subsequently overexpressed the XBP1s in the LepRb-expressing 293 cells and performed two sets of experiments. In the first, we asked whether XBP1s overexpression could enhance the leptin-stimulated tyrosine phosphorylation of LepRb and increase the ability of the cells withstand to the ER stress-mediated blockade of LepRb activation. For this purpose we stimulated the 293 cells with increasing doses of tunicamycin (0.001, 0.01, 0.05, 0.1 and 1 μg/ml) for 5 hours and analyzed leptin-stimulated LepRb activation. In Ad-LacZ infected cells, LepRb activation was blocked at tunicamycin doses of 0.01 μg/ml and higher (data not shown). […]

[6] abbreviates: tunicamycin 3 μg/ml (or DMSO) 4 hours.

A value given as a limit tells only on which side of the number the result lay.

On to tunicamycin, for which the “leptin-stimulated Jak2 tyrosine phosphorylation” value in experiment [1] (tunicamycin 3 μg/ml 4 hours) was “reduced to an undetectable level”. In addition, in experiment [1] (setting [6]), the “leptin-induced Stat3 phosphorylation (Tyr705)” value is reported as “totally abolished” and the “leptin-stimulated LepRB tyrosine phosphorylation” value is recorded as “completely inhibited”. Also, the “insulin-stimulated IR tyrosine phosphorylation” value in experiment [2] was “did not change”. Also, the “LepRB translocation to the plasma membrane” value in experiment [3] (293 cells, tunicamycin 3 μg/ml five hours, immunofluorescence) was “not decreased”. Also, the “leptin binding to LepRB” value in experiment [3] (tunicamycin-treated vs DMSO-treated cells) is “significantly increased”. Moreover, in experiment [4] (leptin 1 mg/kg IP 5½ hours after third ventricle tunicamycin or vehicle infusion, 30 minutes after leptin), the “Stat3 phosphorylation (activation) in the hypothalamus” value was “blocked”. In experiment [4] (third ventricle infusion), the “POMC mRNA levels in hypothalamus” value is given as “did not show any significant difference”; the acute food intake entry is reported as “significantly increased”; the “hypothalamic mRNA levels of IR and IRS1” value is given as “does not lead to a change”; the “mRNA levels of NPY and AgRP in hypothalamus” value is given as “significant increase”. Besides, the “mRNA levels of ER stress-responsive genes (XBP1s, CHOP, ERDJ4) in hypothalamus” value in experiment [4] (third ventricle infusion, twelve hours after infusion) is reported as “significantly upregulated”. In experiment [5] (Ad-LacZ infected 293 cells, tunicamycin 0.05 μg/ml), the “time until leptin-stimulated LepRb, Jak2 activation and Stat3 tyrosine phosphorylation are blocked” value is ≤ 2 h. In addition, in experiment [5] (tunicamycin 0.01 and 0.05 μg/ml, five hours), the “CHOP mRNA expression” value is “upregulates”.
